From patent US20070197488A1, “Prodrugs of ERbeta-selective substances, process for their production, and pharmaceutical compositions that contain these compounds” (priority 2005, published 2007)

How the values were obtained:
[1] = target: Human Carbonic Anhydrase I (Homo sapiens, UniProt P00915); assay: Carbonic anhydrase inhibition (CO2 hydration, time to pH drop); format: biochemical; conditions: read-out: CAI IC50
Method: (§1) b) Carbonic Anhydrase Inhibition—Test Principle and Test Description:
(§2) Carbonic anhydrases catalyze the CO2 hydration.
(§3) Test preparation: A constant CO2 stream is directed through a buffer that was mixed with carbonic anhydrase I or carbonic anhydrase II. The measuring parameter is the time that is required to drop the pH within defined limits. This parameter reflects the formation of H2CO3 in the medium. IC50-Inhibiting values are determined by test substances being pipetted into the test preparation.

[2] = target: Human Carbonic Anhydrase II (Homo sapiens, UniProt P00918); assay: as above; format: biochemical; conditions: read-out: CAII IC50
Method: as §1, §2, §3

[3] = Plasma level of released mother estrogen after oral administration in ovariectomized rats; format: in vivo, Wistar rats; conditions: 1x oral 1 mg/animal, compared with oral 8-vinyl-E2
Method: Adult Wistar rats were ovariectomized 14 days after this operation for the study of the substances according to the invention. A treatment extended over 3 days (days 1-3), and on day 4, the animals were sacrificed. Then, the recovery of plasma for hormone-analytical and clinical-chemical determinations and the determination of uterus weights were carried out. In satellite tests, correspondingly conditioned animals were sacrificed and samples were taken of their blood after one-time treatment and at other times (see FIGS. 1 and 2).

Human Carbonic Anhydrase I, sequence (P00915 whole entry): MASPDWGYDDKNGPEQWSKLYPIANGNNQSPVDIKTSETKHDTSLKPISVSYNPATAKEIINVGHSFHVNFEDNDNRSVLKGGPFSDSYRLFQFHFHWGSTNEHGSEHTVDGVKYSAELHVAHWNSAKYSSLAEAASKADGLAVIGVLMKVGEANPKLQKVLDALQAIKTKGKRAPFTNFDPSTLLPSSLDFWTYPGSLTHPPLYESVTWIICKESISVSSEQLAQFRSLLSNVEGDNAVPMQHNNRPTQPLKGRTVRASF

With `C=C[C@@]12CCc3cc(O)ccc3[C@H]1CC[C@]1(C)[C@@H](OC(=O)c3ccccc3)CC[C@H]12` [(3′-Hydroxy-8′beta-vinyl-estra-1′,3′,5′(10′)-trien-17′beta-yl)-benzoat] the IC50 [1] was > 10000 nM and the IC50 [2] was > 10000 nM.
For `C[C@]12CC[C@@H]3c4ccc(OS(N)(=O)=O)cc4CC[C@H]3[C@@H]1CC[C@@H]2O` [Estradiol-3-sulfamate], the IC50 [1] was 157 ± 10.6 nM and the IC50 [2] was 21.6 ± 1.5 nM.
For `C=C[C@@]12CCc3cc(O)ccc3[C@H]1CC[C@]1(C)[C@@H](OC(=O)c3cccc(S(N)(=O)=O)c3)CC[C@H]12` [Example 1, (3′-Hydroxy-8′-vinylestra-1′,3′,5′(10′)-trien-17′β-yl)-3-sulfamoyl benzoate], the IC50 [1] was 3900 nM, the IC50 [2] was 570 nM and the “Increase of the 8β-vinylestra-1,3,5(10)-triene-3,17β-diol level (8-vinyl-E2) in the plasma” value [3] was “Considerably greater increase”.
With `C=C[C@@]12CCc3cc(O)ccc3[C@H]1CC[C@]1(C)[C@@H](OC(=O)c3ccc(S(N)(=O)=O)cc3)CC[C@H]12` [Example 2, (3′-Hydroxy-8′-vinylestra-1′,3′,5′(10′)-trien-17′β-yl)-4-sulfamoyl benzoate] the “Increase of the 8β-vinylestra-1,3,5(10)-triene-3,17β-diol level (8-vinyl-E2) in the plasma” value [3] was “greater increase”.
